Entries after “also recorded” stand apart in the source; their conditions may differ.
Key:
[1] = system: caspase-3, caspase-8 and PARP in cytosolic extracts from SHEP cells; assay: Cleavage of caspases in cytosolic extracts by cytochrome c or AIF; assay type: biochemical, human; conditions: FIG. 11A
Experimental: For determination of nuclear fragmentation, nuclei (10^3/μl) were incubated with mitochondria (1 μg/μl) in buffer D (10 mM HEPES, pH 7.4, 50 mM NaCl, 2 mM MgCl2, 5 mM EGTA, 1 mM DDT, 2 mM ATP, 10 mM phosphocreatine, 50 μg/ml creatine kinase, 10 μM cytochalasin B) for 2 h at 37° C. Nuclei were stained with propidium iodide ([…]) and analyzed by flow cytometry. For determination of caspase activation, cytosolic extracts (2 μg/μl) were incubated with mitochondria (1 μg/μl), cytochrome c (0.1-100 μM) or AIF-containing mitochondrial supernatant (0.5 μg/μl) in buffer D for 2 h at 37° C. Partially purified AIF (cytochrome c-free) was prepared as previously described (0.5 mg/ml, Susin et al., 1997, J. Exp. Med. 186, 5-37; Susin et al., 1996, J. Exp. Med. 184, 1331-41). Proteins were separated by 15% SDS-PAGE and Western blot analysis was performed as described above. To confirm equal loading of mitochondrial protein, all Western blots were also developed with an antibody directed against a 60 kDa mitochondrial antigen (data not shown).
Cytosolic extracts from SHEP cells were incubated with 0.1-100 μM cytochrome c. Immunodetection of caspases-3, -8 and PARP was performed as described in FIG. 9A.
Cytosolic extracts from SHEP cells transfected with a neomycin resistance vector only (Nec) or bcl-2 were incubated with partially purified AIF. Immunodetection of caspases-3, -8 and PARP was performed as described for FIG. 9A.
For determination of nuclear fragmentation, nuclei (10^3/μl) were incubated with mitochondria (1 μg/μl) in buffer D (10 mM HEPES, pH 7.4, 50 mM NaCl, 2 mM MgCl2, 5 mM EGTA, 1 mM DDT, 2 mM ATP, 10 mM phosphocreatine, 50 μg/ml creatine kinase, 10 μM cytochalasin B) for 2 h at 37° C. Nuclei were stained with propidium iodide ([…]) and analyzed by flow cytometry (Susin et al., 1997 Exp. Cell Res. 236:397-403). For determination of caspase activation, cytosolic extracts (2 μg/μl) were incubated with mitochondria (1 μg/μl), cytochrome c (10 μM) or AIF-containing mitochondrial supernatant (0.5 μg/μl) in buffer D for 2 h at 37° C. […]

IMR-5 cells = assay: Specific apoptosis induction by betulinic acid derivatives; assay type: cell-based; conditions: FIG. 17B
Experimental: (§1) Quantification of DNA fragmentation was performed by FACS analysis of propidium iodide stained nuclei as described in Nicoletti et al, 1991, J. Immunol. Methods. 139: 271-279. Cells were analyzed for DNA content by flow. cytometry (FACScan, Becton Dickinson, Heidelberg, Germany) using CELLQuest software. Early apoptotic changes were identified by staining with biotinylated annexin V (Bender Med Systems, Vienna, Austria) following the manufacturer's instructions. Annexin V binds to exposed phosphatidylserine on the surface of apoptotic cells. Koopman et al, 1994, Blood. 84:1415-1420. Cells were analyzed by flow cytometry (FAC-Scan. Becton Dickinson) using CELLQuest software.
(§2) More specifically, betulinic acid, 28-acetyl-3-β-D-glucosyl betulin (“B10”), 3-β-28-hydroxylup-20(29)-en-3-yl-β-D-glucopyranoside (“B11”), 3-β-3-hydroxylup-20(29)-en-28-yl-β-D-glucopyranoside (“B12”), and 3-(β-D-glucopyranosyloxy)lup-20(29)-en-28-oic acid (“B13”) have been tested for specific apoptosis induction using the assays shown in Example 2. See, supra. […] (FIG. 17B).

Kelly cells = assay: as above; assay type: cell-based; conditions: FIG. 17C
Experimental: as §1, §2

[2] = system: melanoma cell line (MEL-2); conditions: previously reported; cited from earlier work
[3] = 0.1-100 μM (Ex. 3) or 10 μM (Ex. 4) cytochrome c, partially purified AIF or AIF-containing supernatant, 11B, 16B

Compound | apoptotic activity compared to betulinic acid (IMR-5 cells) | apoptotic activity compared to betulinic acid (Kelly cells) | other results
cytochrome c |  |  | cleavage of caspase-3 in cytosolic extracts [1, 3]: triggered the proteolytic processing of caspase-3 to its active subunits; also recorded: resulted in the processing of caspase-3 and PARP; cleavage of caspase-8 in cytosolic extracts [1, 3]: did not induce caspase-8 cleavage; also recorded: did not induce caspase-8 activation; cleavage of PARP in cytosolic extracts ([1]; 0.1-100 μM cytochrome c): caused caspase-mediated cleavage of PARP
C=C(C)C1CCC2(COC(C)=O)CCC3(C)C(CCC4C5(C)CCC(OC6OC(CO)C(O)C(O)C6O)C(C)(C)C5CCC43C)C12 [B10, 3β-28-(acetyloxy)lup-20(29)-en-3-yl-β-D-glucopyranoside] | enhanced apoptotic activity | at least as high as betulinic acid | 
C=C(C)C1CCC2(COC3OC(CO)C(O)C(O)C3O)CCC3(C)C(CCC4C5(C)CCC(O)C(C)(C)C5CCC43C)C12 [B12, 3-β-3-hydroxylup-20(29)-en-28-yl-β-D-glucopyranoside] | enhanced apoptotic activity | at least as high as betulinic acid | 
C=C(C)[C@@H]1CC[C@]2(C(=O)O)CC[C@]3(C)[C@H](CC[C@@H]4[C@@]5(C)CC[C@H](O)C(C)(C)[C@@H]5CC[C@]43C)[C@@H]12 [betulinic acid, 3β-3-hydroxylup-20(29)-en-28-oic acid] |  |  | cytotoxicity [2]: exert cytotoxicity
C=C(C)C1CCC2(C(=O)O)CCC3(C)C(CCC4C5(C)CCC(OC6OC(CO)C(O)C(O)C6O)C(C)(C)C5CCC43C)C12 [B13, 3-(β-D-glucopyranosyloxy)lup-20(29)-en-28-oic acid] | enhanced apoptotic activity | at least as high as betulinic acid | 
C=C(C)[C@@H]1CC[C@]2(CO)CC[C@]3(C)[C@H](CC[C@@H]4[C@@]5(C)CC[C@H](O[C@@H]6O[C@H](CO)[C@@H](O)[C@H](O)[C@H]6O)C(C)(C)[C@@H]5CC[C@]43C)[C@@H]12 [B11, 3-β-28-hydroxylup-20(29)-en-3-yl-β-D-glucopyranoside] | about the same activity as betulinic acid | at least as high as betulinic acid | 
